This experiment concerns P388 leukemia ip, CD2F1 mice, survival T/C. The experiment in a line: NCI In Vivo Anticancer Drug Screen. Data for tumor model P388 Leukemia (intraperitoneal) in CD2F1 (CDF1) mice. Particulars: endpoint: median survival time, higher = longer survival. The procedure, abridged:
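Mice carrying the transplanted tumor received test compound or vehicle. Survival was recorded in each group, and the value is the treated-group measurement divided by that of the vehicle-treated control group.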

The mark [1] stands for this setting: dose: 25.0 mg/kg/injection, schedule: Q01DX001 (ip), vehicle: saline with Tween-80.
[2] abbreviates: dose: 50.0 mg/kg/injection, schedule: Q01DX001 (ip), vehicle: saline with Tween-80.
Setting [3] is: dose: 12.5 mg/kg/injection, schedule: Q01DX009 (ip), vehicle: saline with Tween-80.
The mark [4] stands for this setting: dose: 25.0 mg/kg/injection, schedule: Q01DX009 (ip), vehicle: saline with Tween-80.
[5] abbreviates: dose: 50.0 mg/kg/injection, schedule: Q01DX009 (ip), vehicle: saline with Tween-80.
Where [6] appears, read: dose: 50.0 mg/kg/injection, schedule: Q01DX005 (ip), vehicle: Klucel (hydroxypropylcellulose) (HPC).
Where [7] appears, read: dose: 100.0 mg/kg/injection, schedule: Q01DX005 (ip), vehicle: Klucel (hydroxypropylcellulose) (HPC).
[8] abbreviates: dose: 200.0 mg/kg/injection, schedule: Q01DX005 (ip), vehicle: Klucel (hydroxypropylcellulose) (HPC).
[9] abbreviates: dose: 50.0 mg/kg/injection, schedule: Q01DX009 (ip), vehicle: Klucel (hydroxypropylcellulose) (HPC).
Where [10] appears, read: dose: 100.0 mg/kg/injection, schedule: Q01DX009 (ip), vehicle: Klucel (hydroxypropylcellulose) (HPC).
Setting [11] is: dose: 200.0 mg/kg/injection, schedule: Q01DX009 (ip), vehicle: Klucel (hydroxypropylcellulose) (HPC).
[12] abbreviates: dose: 60.0 mg/kg/injection, schedule: Q01DX005 (ip), vehicle: Klucel (hydroxypropylcellulose) (HPC).
Setting [13] is: dose: 120.0 mg/kg/injection, schedule: Q01DX005 (ip), vehicle: Klucel (hydroxypropylcellulose) (HPC).
The mark [14] stands for this setting: dose: 100.0 mg/kg/injection, schedule: Q04DX003 (ip), vehicle: saline.
[15] abbreviates: dose: 200.0 mg/kg/injection, schedule: Q04DX003 (ip), vehicle: saline.

Where “and” joins values, the source holds several entries; their conditions need not be identical. Identical values can stand only once. Toxic doses and inconclusive results are not listed.

For `O=C(/C(Br)=C/c1ccccc1)/C(Br)=C/c1ccccc1`, the T/C was 100 % of control (dose: 12.5 mg/kg/injection, schedule: Q01DX001 (ip), vehicle: saline with Tween-80); 100 % of control under setting [1]; 88 % of control under setting [2].
In the case of `COc1ccc2c(c1)C1CCN(C)CC1OC2=O` (stereo unspecified), the T/C by setting is: under setting [3], 92 % of control; under setting [4], 98 % of control; under setting [5], 100 % of control and 104 % of control.
For the compound `CNC(=O)OCC1=C(COC(=O)NC)C2OC1C(C(=O)OC)=C2C(=O)OC`, the T/C is 91 % of control (dose: 3.13 mg/kg/injection, schedule: Q01DX009 (ip), vehicle: distilled water + Tween-80) and 94 % of control (dose: 12.5 mg/kg/injection, schedule: Q01DX009 (ip), vehicle: distilled water + Tween-80).
For the compound `CCCCN(CCCC)C(=O)C(C)O` (stereo unspecified), the T/C (dose: 25.0 mg/kg/injection, schedule: Q01DX005 (ip), vehicle: Klucel (hydroxypropylcellulose) (HPC)) was 108 % of control; the T/C under setting [6] is 105 % of control; the T/C under setting [7] was 110 % of control; the T/C under setting [8] was 112 % of control.
As to `CC(C)=CO[Si](C)(C)C`, the T/C is, setting by setting: (dose: 50.0 mg/kg/injection, schedule: Q01DX009 (ip), vehicle: olive oil, sesame oil, peanut oil) 99 % of control; (dose: 100.0 mg/kg/injection, schedule: Q01DX009 (ip), vehicle: olive oil, sesame oil, peanut oil) 99 % of control; (dose: 200.0 mg/kg/injection, schedule: Q01DX009 (ip), vehicle: olive oil, sesame oil, peanut oil) 114 % of control.
With `C=C1CC[N+]2(CCCC)CCCC12` (stereo unspecified), the T/C reads like this: (dose: 7.5 mg/kg/injection, schedule: Q01DX005 (ip), vehicle: saline) 104 % of control; (dose: 15.0 mg/kg/injection, schedule: Q01DX005 (ip), vehicle: saline) 98 % of control; (dose: 30.0 mg/kg/injection, schedule: Q01DX005 (ip), vehicle: saline) 100 % of control.
As to `c1ccc2c(c1)ccc1c(NCCCCCCNc3c4ccccc4nc4c3ccc3ccccc34)c3ccccc3nc12`, the T/C reads like this: under setting [9], 93 % of control; under setting [10], 96 % of control; under setting [11], 105 % of control.
Take `CCOc1c(N=Nc2ccc(Cl)cc2)c(C)nn1C(=S)S`: the T/C under setting [12] was 96 % of control and the T/C under setting [13] was 97 % of control.
Consider `CCOC(=O)C(C)OC1CCCCO1` (stereo unspecified), for which the T/C was 105 % of control (dose: 50.0 mg/kg/injection, schedule: Q01DX009 (ip), vehicle: other); 95 % of control (dose: 100.0 mg/kg/injection, schedule: Q01DX009 (ip), vehicle: other); 96 % of control (dose: 200.0 mg/kg/injection, schedule: Q01DX009 (ip), vehicle: other).
As to `CCCCCCC(O)C(CCCCCC)[Se]C` (stereo unspecified), the T/C is, setting by setting: (dose: 50.0 mg/kg/injection, schedule: Q04DX003 (ip), vehicle: saline with Tween-80) 104 % of control; (dose: 100.0 mg/kg/injection, schedule: Q04DX003 (ip), vehicle: saline with Tween-80) 106 % of control and 115 % of control; (dose: 200.0 mg/kg/injection, schedule: Q04DX003 (ip), vehicle: saline with Tween-80) 100 % of control.
`O=C(/C=C/c1ccccc1)C1CCCCC1`: the T/C is 107 % of control under setting [9], 107 % of control under setting [10] and 106 % of control under setting [11].
`Nc1nc(-c2cccc3ccccc23)cc2ccccc12`: the T/C reads like this: (dose: 12.5 mg/kg/injection, schedule: Q01DX009 (ip), vehicle: water) 124 % of control; (dose: 100.0 mg/kg/injection, schedule: Q01DX009 (ip), vehicle: water) 150 % of control; (dose: 200.0 mg/kg/injection, schedule: Q01DX009 (ip), vehicle: water) 166 % of control.
`Cc1cc(C)c2c(Nc3ccc4c(c3)OCO4)c(C(=O)O)cnc2c1`: the T/C reads like this: (dose: 60.0 mg/kg/injection, schedule: Q04DX002 (ip), vehicle: Klucel + Tween-80) 95 % of control; (dose: 120.0 mg/kg/injection, schedule: Q04DX002 (ip), vehicle: Klucel + Tween-80) 92 % of control; (dose: 240.0 mg/kg/injection, schedule: Q04DX002 (ip), vehicle: Klucel + Tween-80) 101 % of control.
In the case of `O=C1CSCC(=O)OCCOCCOCCOCCO1`, the T/C was 100 % of control under setting [14]; 101 % of control under setting [15]; 100 % of control (dose: 400.0 mg/kg/injection, schedule: Q04DX003 (ip), vehicle: saline).
Take `CC(C)(C)c1cc2c3c(c1)C(C)(C)OS314(OC2=O)OC(=O)c2cc(C(C)(C)C)cc(c21)C(C)(C)O4`: the T/C was 111 % of control under setting [1]; 92 % of control under setting [2]; 100 % of control (dose: 100.0 mg/kg/injection, schedule: Q01DX001 (ip), vehicle: saline with Tween-80).
For `CP(=O)(c1ccccc1)c1ccccc1OCCCOCCCOc1ccccc1P(C)(=O)c1ccccc1` (stereo unspecified), the T/C by setting is: under setting [6], 99 % of control; under setting [7], 99 % of control; under setting [8], 94 % of control.
`CCOC(=O)NC(=S)Nc1ccsc1`: the T/C by setting is: under setting [5], 99 % of control; (dose: 100.0 mg/kg/injection, schedule: Q01DX009 (ip), vehicle: saline with Tween-80) 104 % of control; (dose: 200.0 mg/kg/injection, schedule: Q01DX009 (ip), vehicle: saline with Tween-80) 102 % of control.
`COC(=O)c1c2cc(C(C)(C)C)cc-2c(N(C)C)nc(N(C)C)c1C(=O)OC`: the T/C under setting [12] was 95 % of control and the T/C under setting [13] was 95 % of control.
Turning to `N#CC(NCc1ccccc1)C(O)c1ccccc1` (stereo unspecified), the T/C reads like this: (dose: 25.0 mg/kg/injection, schedule: Q01DX009 (ip), vehicle: suspension in saline) 105 % of control; (dose: 50.0 mg/kg/injection, schedule: Q01DX009 (ip), vehicle: suspension in saline) 105 % of control; (dose: 100.0 mg/kg/injection, schedule: Q01DX009 (ip), vehicle: suspension in saline) 105 % of control.
As for `C=CCOc1cc2c(cc1C(C)c1ccc(OC)c(OC)c1)OCO2` (stereo unspecified), the T/C is, setting by setting: (dose: 50.0 mg/kg/injection, schedule: Q01DX005 (ip), vehicle: saline with Tween-80) 99 % of control; (dose: 100.0 mg/kg/injection, schedule: Q01DX005 (ip), vehicle: saline with Tween-80) 100 % of control; (dose: 200.0 mg/kg/injection, schedule: Q01DX005 (ip), vehicle: saline with Tween-80) 95 % of control.
Take `CCC(c1cccc(O)c1)C(CC)c1cccc(O)c1` (stereo unspecified): the T/C runs as follows: under setting [6], 102 % of control; under setting [7], 102 % of control; under setting [8], 103 % of control.
`CC(=O)OC1=C(C)[C@@H]2CC(=O)O[C@@H]3C[C@H]4[C@H](C)C[C@H](O)[C@H](O)[C@]4(C)[C@@H](C1=O)[C@@]32C`: the T/C (dose: 0.5 mg/kg/injection, schedule: Q01DX005 (ip), vehicle: saline + alcohol) was 101 % of control; the T/C (dose: 1.0 mg/kg/injection, schedule: Q01DX005 (ip), vehicle: saline + alcohol) is 103 % of control; the T/C (dose: 2.0 mg/kg/injection, schedule: Q01DX005 (ip), vehicle: saline + alcohol) was 115 % of control; the T/C (dose: 4.0 mg/kg/injection, schedule: Q01DX005 (ip), vehicle: saline + alcohol) is 111 % of control; the T/C (dose: 8.0 mg/kg/injection, schedule: Q01DX005 (ip), vehicle: saline + alcohol) was 115 % of control; the T/C (dose: 16.0 mg/kg/injection, schedule: Q01DX005 (ip), vehicle: saline + alcohol) was 101 % of control. Also, for the setting “dose: 32.0 mg/kg/injection, schedule: Q01DX005 (ip), vehicle: saline + alcohol”, the T/C is 94 % of control.
For `CC1C(=O)CCC2(C)C1CCC1C3CCC(O)C3(C)CCC12` (stereo unspecified), the T/C by setting is: under setting [3], 95 % of control; under setting [4], 109 % of control; under setting [5], 95 % of control.
For the compound `Cc1cncn2c(C)nnc12`, the T/C runs as follows: under setting [14], 100 % of control; under setting [15], 104 % of control.
Regarding `O=c1ccc2c(O)c3ccoc3cc2o1`, the T/C (dose: 100.0 mg/kg/injection, schedule: Q01DX001 (ip), vehicle: Klucel (hydroxypropylcellulose) (HPC)) was 101 % of control; the T/C (dose: 200.0 mg/kg/injection, schedule: Q01DX001 (ip), vehicle: Klucel (hydroxypropylcellulose) (HPC)) is 111 % of control; the T/C (dose: 400.0 mg/kg/injection, schedule: Q01DX001 (ip), vehicle: Klucel (hydroxypropylcellulose) (HPC)) was 106 % of control.

The record behind these values is PubChem BioAssay AID330 (DTP/NCI, 2004).
